# According to patent publication US12295930B2, “Inducing proliferation of cardiomyocytes and therapeutic uses related thereto” (Emory University, priority 2018, dated 2025):
# Legend:
# [1] = system: ventricular cardiomyocytes; experiment: Ventricular cardiomyocyte numbers after T3/metoprolol therapy in adult mice; assay type: in vivo, mouse; conditions: adult 6-month-old mice; metoprolol 6 μg/g daily i.p. 19 days and/or T3 2 ng/g i.p. 5 daily injections; 2 weeks after cessation
# Text: Digestion efficiencies were ˜98%. Cardiomyocytes in these cell suspensions, identified by their size and by rod shape, were counted using a hemocytometer. […]
# [2] = system: adult murine heart; experiment: Transthoracic echocardiography after T3/β1-adrenergic receptor blocker therapy; assay type: in vivo, mouse; conditions: for Ejection fraction / FW diastole / FW systole / Fractional shortening / IVS diastole / IVS systole / LV end-diastolic dimension / LV end-systolic dimension / LV mass: adult 6-month-old mice, metoprolol 6 μg/g daily i.p. 19 days and/or T3 2 ng/g i.p. 5 daily injections, 2 weeks after cessation
# Description: Approximately 6-month-old mice were used. […] On day-14 of this therapy, mice were additionally given 5 daily injections of T3 (2 ng/g, i.p.) or vehicle. At 2 and 4 weeks after the cessation of T3/β1-adrenergic receptor blocker mono- or combination therapy, the body weights of these mice were measured as well as their cardiac dimensions and function using transthoracic echocardiography.
# Experiments were performed to determine whether reversal of cell cycle block using β1-blockade coupled with acute T3 treatment may be sufficient to expand the cardiomyocyte endowment of the adult murine heart. […] Two weeks after cessation of these therapies LV dimensions and contractility were analyzed by echocardiography as well as ventricular cardiomyocyte numbers.
# [3] = system: LV cardiomyocytes; experiment: Immunocytochemistry for S phase (EdU) and mitosis (pH3) after in vivo T3; parameters: species or system mouse
# Description: (§1) T3 was administered, intraperitoneally, to each mouse at the dose indicated. Vehicle was administered by the same route and animals thus treated served as controls. Phosphate buffered saline (PBS) was the vehicle for T3, and soybean oil (Sigma, S7381) was the vehicle for 4-hydroxytamoxifen. DUSP5 or β1-adrenergic receptor-specific siRNA or scrambled siRNA (control) was administered using in vivo-jetPEI®, (VWR, 89129-960). […] P7 and older mice were first anesthetized with 5% isoflurane and then hearts were harvested for further processing. Hearts were also collected at 12, 24 and 40 h after T3 or vehicle treatment and ventricular cardiomyocytes were prepared from the apex and base for immunoblotting, RT-qPCR or immunocytochemistry. Hearts were also collected at various ages after birth for immunoblotting, immunocytochemistry, immunohistochemistry and cardiomyocyte number estimation.
# Experiments were performed to determine whether T3-stimulated cell cycle entry in LV apical cardiomyocytes ends in mitosis and cell replication.
# [4] = system: LV cardiomyocytes; conditions: T3 daily over 3 days (P7-P9); same mouse heart
# Description: To determine if LV apical cardiomyocytes undergo cell replication, multicolor clonal analysis was used in double-transgenic Myh6-MerCreMer::Rosa26fs-Confetti mice to record the proliferative strategies of individual cardiomyocytes of the apex relative to those of the base.
# [5] = system: IGF-1/IGF-1R, MEK1/2, ERK1/2; experiment: T3 proliferative signaling in P8 LV apical and basal cardiomyocytes (immunoblotting); assay type: in vivo, mouse
# Description: as §1
# Proliferative signaling by growth factors involves Ras/Raf/mitogen-activated protein kinase (MAPK) kinase (MEK)/extracellular signal-regulated kinase (ERK) signaling. MEK1/2 activate ERK1/2 by phosphorylating T202 and Y204, which is required for ERK1/2 translocation to the nucleus. Sustained ERK1/2 phosphorylation in the nucleus activates multiple transcription factors ultimately resulting in effector protein synthesis and cell proliferation. A single dose of T3 was administered to P8 mice, and cardiomyocytes were isolated from the LV apex or base either immediately after T3 administration (0 h) or after 24 h. […] However, the fraction of nuclear ERK1/2 that remained phosphorylated at 24 h post-T3 treatment was ˜70% lower in LV basal cardiomyocytes (FIG. 4A).
# [6] = system: ventricular cardiomyocytes; experiment: Ventricular cardiomyocyte count in early post-neonatal mice after T3; assay type: in vivo, mouse
# Description: To determine the effect of T3 on the ventricular cardiomyocyte population in early post-neonatal mice, T3 daily (i. p.), was administered from P7 to P9. At P12, hearts were enzymatically disaggregated and cell suspensions created from the cardiac ventricles. Digestion efficiencies were ˜98%. Cardiomyocytes in these cell suspensions, identified by their size and by rod shape, were counted using a hemocytometer. T3 increased ventricular cardiomyocyte numbers by ˜18% (FIG. 2D), which indicates an average replication rate of 3.6%/day between P7 and P12.
# [7] = system: cyclins D1, A2 and B1; experiment: Acute in vivo T3 challenge: cyclin expression by immunoblotting; parameters: species or system mouse
# Description: as §1, with “4-hydroxytamoxifen.” for “4-hydroxytamoxifen. DUSP5 or β1-adrenergic receptor-specific siRNA or scrambled siRNA (control) was administered using in vivo-jetPEI®, (VWR, 89129-960).”
# An acute in vivo T3 challenge was used to identify post-neonatal LV cardiomyocytes that retain proliferative capacity. Increases in myocardial cell cycle-promoting cyclins was explored as a surrogate for identifying cardiomyocytes that are able to enter the cell cycle.
# [8] = LV apex cardiomyocytes, post-P8, in vivo T3
# [9] = LV basal cardiomyocytes, in vivo T3
Compound,"Cardiomyocyte numbers, (millions) [n] [1]",Ejection fraction [2],FW diastole [2],FW systole [2],Fractional shortening [2],IVS diastole [2],IVS systole [2],LV end-diastolic dimension [2],LV end-systolic dimension [2],LV mass [2],other results
"COCCc1ccc(OCC(O)CNC(C)C)cc1 (stereo not drawn) [Metoprolol, metoprolol succinate]",2.44 ± 0.026 millions,55.4 ± 1.8%,0.92 ± 0.02 mm,1.20 ± 0.03 mm,23.4 ± 0.6%,0.96 ± 0.02 mm,1.29 ± 0.02 mm,3.53 ± 0.07 mm,2.71 ± 0.06 mm,113 ± 2 mg,
"N[C@@H](Cc1cc(I)c(Oc2ccc(O)c(I)c2)c(I)c1)C(=O)O [T3, 3,3′,5-triiodo-L-thyronine]",2.33 ± 0.039^NS millions,55.7 ± 1.4^NS %,0.87 ± 0.01^NS mm,1.19 ± 0.03^NS mm,24.8 ± 1.4^NS %,0.94 ± 0.01^NS mm,1.29 ± 0.02^NS mm,3.60 ± 0.03^NS mm,2.70 ± 0.05^NS mm,110 ± 2^NS mg,"number of cardiomyocytes in S phase (EdU+) [3, 8]: increased the number of cardiomyocytes in S phase; number of cardiomyocytes in mitosis (pH3+) [3, 8]: increased; S phase in LV basal cardiomyocytes [3, 9]: an increase in S phase was observed; mitosis in LV basal cardiomyocytes [3, 9]: did not enter mitosis; increase in frequency of monochromatic cardiomyocyte clusters in the LV apex relative to the base [4]: ~6.5 fold; fraction of nuclear ERK1/2 that remained phosphorylated, lower in LV basal cardiomyocytes ([5]; 24 h post-T3 treatment, P8 mice, basal vs apical): ~70%; MEK1/2 phosphorylation and nuclear translocation of ERK1/2 ([5]; P8 mice, single dose T3, 24 h, similarly in apical and basal cardiomyocytes): increased MEK1/2 phosphorylation; T3-stimulated expression of IGF-1/IGF-1R ([5]; post-neonatal basal vs apical cardiomyocytes): comparable in basal and apical cardiomyocytes; increase in ventricular cardiomyocyte numbers ([6]; T3 daily i.p. P7 to P9, counted at P12): ~18%; average replication rate ([6]; between P7 and P12): 3.6 %/day; T3 increase of cyclins D1/A2/B1, more in apical than in basal cardiomyocytes ([7]; P8 hearts, LV apical vs basal cardiomyocytes): 2-5 fold; expression of cyclins D1, A2 and B1, higher in the LV apex than in the base ([7]; P8 mice, 40 h after in vivo T3 challenge, LV myocardium): 2.5-100 fold; T3 effect on cyclins in apical or basal cardiomyocytes ([7]; P16 cardiomyocytes): did not increase cyclins; T3 effect on cyclins D1/A2/B1 in LV apical and basal cardiomyocytes ([7]; neonatal hearts): increased cyclins D1/A2/B1 similarly in LV apical and basal cardiomyocytes; T3-stimulated expression of cyclins D1, A2 and B1, lower in basal cardiomyocytes ([7]; post-neonatal basal vs apical cardiomyocytes, 40 h after T3): 2-3 fold; effect on body weight, ventricular cardiomyocyte numbers, LV mass or any measured LV dimension ([2]; vehicle pretreated adult mice): did not significantly affect"
